Assay results as given in patent US10604523B2, “1-aryl-4-methyl-[1,2,4]triazolo[4,3-a]quinoxaline derivatives” (Janssen Pharmaceutica NV, priority 2011, dated 2020).
Read-outs that look alike come from different tables or passages of the source.

Experiments:
[1] = tested on: Apomorphine-induced agitation; assay: Reversal of Apomorphine-induced Agitation in Rats (APO); format: in vivo, rat; conditions: for SC Dose at max effect / SC Max effect (cumulative agitation score over 60 min) / SC LAD (lowest active dose): subcutaneous route; for SC Max effect (cumulative agitation score over 60 min) / PO Max effect (cumulative agitation score over 60 min): apomorphine 1.0 mg/kg i.v.; for SC LAD (lowest active dose) / PO LAD (lowest active dose): lowest dose at which ≥67% tested animals respond
Experimental: Apomorphine (1.0 mg/kg, i.v.)-induced agitation was scored every 5 min over the first hour after injection of apomorphine. The score system was: (3) pronounced, (2) moderate, (1) slight, and (0) absent. […] For the present purpose, the cumulative agitation score over the whole 60-min observation period was used as a measure to describe the maximum effect (Max effect).

[2] = biological target: T1, Human recombinant PDE2A (hPDE2A) (Homo sapiens, UniProt O00408); assay: In vitro assay PDE2A (SPA, 3H-cGMP); format: biochemical; conditions: read-out: pIC50 PDE2 (converted)
T1 construct: made in house; host or cells: Sf9 insect cells (baculovirus)
Experimental: Tested compounds were dissolved and diluted in 100% DMSO to a concentration 100 fold of the final concentration in the assay. Compound dilutions (0.4 μl) were added in 384 well plates to 20 μl of incubation buffer (50 mM Tris pH 7.8, 8.3 mM MgCl2, 1.7 mM EGTA). 10 μl of hPDE2A enzyme in incubation buffer was added and the reaction was started by addition of 10 μl substrate to a final concentration of 10 μM cGMP and 0.01 μCi ^3H-cGMP. The reaction was incubated for 45 minutes at room temperature. […] After sedimentation of the beads during 30 minutes the radioactivity was measured in a Perkin Elmer Topcount scintillation counter and results were expressed as cpm. For blanc values the enzyme was omitted from the reaction and replaced by incubation buffer. Control values were obtained by addition of a final concentration of 1% DMSO instead of compound.

[3] = biological target: T2, Rat recombinant PDE10A (rPDE10A2) (Rattus norvegicus, UniProt Q9QYJ6); assay: In vitro assay PDE10A (SPA, 3H-cAMP); format: biochemical; conditions: read-out: PIC50 PDE10 (converted)
T2 construct: made in house; host or cells: Sf9 insect cells (baculovirus)
T2 sequence (Q9QYJ6 1-794): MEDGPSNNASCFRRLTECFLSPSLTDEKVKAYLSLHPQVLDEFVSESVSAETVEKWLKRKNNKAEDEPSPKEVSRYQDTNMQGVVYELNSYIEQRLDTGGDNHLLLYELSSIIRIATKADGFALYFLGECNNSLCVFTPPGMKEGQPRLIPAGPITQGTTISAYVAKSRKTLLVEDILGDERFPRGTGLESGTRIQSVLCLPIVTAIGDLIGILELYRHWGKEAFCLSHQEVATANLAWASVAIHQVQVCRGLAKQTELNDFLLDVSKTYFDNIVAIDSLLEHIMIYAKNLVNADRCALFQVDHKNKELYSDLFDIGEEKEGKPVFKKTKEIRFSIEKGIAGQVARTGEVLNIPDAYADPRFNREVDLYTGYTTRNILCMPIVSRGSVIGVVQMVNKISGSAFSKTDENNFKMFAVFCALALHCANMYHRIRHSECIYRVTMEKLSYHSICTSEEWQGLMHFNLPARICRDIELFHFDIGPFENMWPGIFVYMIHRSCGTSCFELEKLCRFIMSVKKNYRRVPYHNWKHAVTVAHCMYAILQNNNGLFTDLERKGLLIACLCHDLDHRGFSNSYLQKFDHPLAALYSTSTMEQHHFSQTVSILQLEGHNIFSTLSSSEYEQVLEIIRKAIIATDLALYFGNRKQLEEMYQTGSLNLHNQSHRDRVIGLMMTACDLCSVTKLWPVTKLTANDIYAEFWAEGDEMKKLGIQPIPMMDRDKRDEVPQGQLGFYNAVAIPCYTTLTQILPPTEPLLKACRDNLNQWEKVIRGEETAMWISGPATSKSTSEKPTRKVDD

T1 sequence (O00408 whole entry): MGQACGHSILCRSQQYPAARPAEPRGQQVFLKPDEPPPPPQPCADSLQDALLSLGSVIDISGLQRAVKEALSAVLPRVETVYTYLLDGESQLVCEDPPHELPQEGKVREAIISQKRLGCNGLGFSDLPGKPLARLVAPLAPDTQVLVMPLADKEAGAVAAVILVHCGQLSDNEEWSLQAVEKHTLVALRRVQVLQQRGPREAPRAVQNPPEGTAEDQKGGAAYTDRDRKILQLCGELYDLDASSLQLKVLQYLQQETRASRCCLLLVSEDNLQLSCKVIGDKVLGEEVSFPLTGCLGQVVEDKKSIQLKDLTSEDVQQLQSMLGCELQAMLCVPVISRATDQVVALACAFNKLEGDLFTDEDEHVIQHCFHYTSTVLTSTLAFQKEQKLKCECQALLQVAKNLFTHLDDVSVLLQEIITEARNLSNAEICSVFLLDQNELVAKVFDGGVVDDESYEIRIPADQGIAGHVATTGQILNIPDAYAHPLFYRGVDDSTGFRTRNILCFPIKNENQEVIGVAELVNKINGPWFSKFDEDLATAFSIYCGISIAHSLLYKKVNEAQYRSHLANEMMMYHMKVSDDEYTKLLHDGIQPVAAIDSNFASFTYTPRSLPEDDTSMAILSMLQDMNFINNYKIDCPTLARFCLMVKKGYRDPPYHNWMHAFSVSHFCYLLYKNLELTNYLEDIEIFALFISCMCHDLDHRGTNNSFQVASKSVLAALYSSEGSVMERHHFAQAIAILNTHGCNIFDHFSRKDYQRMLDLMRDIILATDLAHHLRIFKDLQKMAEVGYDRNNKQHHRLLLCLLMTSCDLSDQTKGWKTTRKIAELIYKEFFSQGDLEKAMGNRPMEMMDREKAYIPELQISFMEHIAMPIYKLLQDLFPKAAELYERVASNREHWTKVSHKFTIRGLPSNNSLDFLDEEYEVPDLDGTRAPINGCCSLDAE

Row | IC50 [2] | IC50 [3] | IC50 ([3]; -log IC50 expressed in mol/L, rPDE10A2, 60 nM cAMP) | SMILES | SC Dose at max effect [1] | SC Max effect (cumulative agitation score over 60 min) [1] | SC LAD (lowest active dose) [1] | PO Dose at Max Effect [1] | PO Max effect (cumulative agitation score over 60 min) [1] | PO LAD (lowest active dose) [1]
1 | 12 nM | 50.1 nM |  | Cc1nc2ccc(CN[C@H]3CC[C@H](O)CC3)cc2n2c(-c3ccccc3Cl)nnc12 [Compound B-90] | 10 mg/kg | 25 | > 10 mg/kg |  |  | 
2 | 2 nM | 45.7 nM |  | Cc1nc2ccc(O)cc2n2c(-c3ccccc3Cl)nnc12 [Compound B-13, 1-(2-Chlorophenyl)-4-methyl[1,2,4]triazolo[4,3-a]quinoxalin-8-ol] |  |  |  | 10 mg/kg | 19 | 10 mg/kg
3 | 3.98 nM | 44.7 nM |  | Cc1nc2ccc(C(=O)NCc3cccnc3)cc2n2c(-c3ccccc3)nnc12 [Compound B-56] |  |  |  | 10 mg/kg | 21 | > 10 mg/kg
4 | 18.6 nM | 178 nM |  | CCOc1ccc(Cl)c(-c2nnc3c(C)nc4ccc(CNc5cccnc5)cc4n23)c1 [Compound B-103] | 10 mg/kg | 21 | > 10 mg/kg |  |  | 
5 | 12.9 nM | 64.6 nM |  | COCC1CCN(Cc2ccc3nc(C)c4nnc(-c5ccccc5Cl)n4c3c2)C1 (centres unmarked) [Compound B-94] | 5 mg/kg | 24 | > 5 mg/kg |  |  | 
6 | 2.51 nM |  | 155 nM | CCNC(=O)c1ccc2nc(C)c3nnc(-c4ccccc4F)n3c2c1 [Compound B-51] |  |  |  | 10 mg/kg | 21 | > 10 mg/kg
7 | 9.77 nM | 102 nM |  | Cc1nc2ccc(C(=O)NCc3ccncc3)cc2n2c(-c3ccccc3)nnc12 [Compound B-83] | 2.5 mg/kg | 29 | > 10 mg/kg |  |  | 
